# Measurements: ChEMBL document CHEMBL5543119, “Discovery of Novel 11-Membered Templates as Squalene Synthase Inhibitors” (J Med Chem, 2024)
# pIC50: −log10 of the molar value.
# Tested on: Hamster
# Assay: Lipid lowering effect in hamster assessed as reduction in total cholesterol level in serum at 100 mg/kg, po bid administered at 9 a.m and 4 p.m for 14 days relative to control
# Type: functional, Cricetinae
# Set-up: scale not given: the % may be the effect or the level left
# Settings: time 14 day
row,Compound,Activity [%]
1,COc1cccc([C@H]2O[C@H](CC(=O)N3CCC(CC(=O)O)CC3)C(=O)N(CC(C)(C)CO)c3ccc(Cl)cc32)c1OC,2

# Target: T1, Squalene synthase (Rattus norvegicus, UniProt Q02769)
# T1 sequence (Q02769 whole entry): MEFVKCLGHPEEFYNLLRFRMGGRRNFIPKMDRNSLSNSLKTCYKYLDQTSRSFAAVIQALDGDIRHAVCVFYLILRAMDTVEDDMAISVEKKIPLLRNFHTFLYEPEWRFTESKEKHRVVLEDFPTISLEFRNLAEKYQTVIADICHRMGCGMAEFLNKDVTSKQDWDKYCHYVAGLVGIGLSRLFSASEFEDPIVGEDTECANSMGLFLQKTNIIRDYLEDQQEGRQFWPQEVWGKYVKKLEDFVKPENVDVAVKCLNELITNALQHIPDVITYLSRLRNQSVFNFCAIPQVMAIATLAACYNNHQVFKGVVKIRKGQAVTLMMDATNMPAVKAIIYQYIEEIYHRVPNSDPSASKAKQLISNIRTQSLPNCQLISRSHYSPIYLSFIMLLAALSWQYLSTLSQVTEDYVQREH
# Assay: Inhibition of squalene synthase in rat liver microsomes using [3H] farnesyl pyrophosphate as substrate preincubated for 10 mins followed by substrate addition and measured after 30 mins by liquid scintillation counter analysis
# Set-up: species or system Microsome
# Settings: not given
row,pIC50,Compound
1,≤ 6.59,COc1ccccc1C1OCCCN(C(=O)C(=O)O)CC(=O)N(CC(C)(C)C)c2ccc(Cl)cc21 (centres undefined)
2,6.35,COc1ccccc1C1OCCN([C@H]2CC[C@@H](C(=O)O)CC2)C(=O)CC(=O)N(CC(C)(C)C)c2ccc(Cl)cc21 (some centres undefined)
3,7.64,COc1ccccc1C1OCCN([C@H]2CC[C@H](C(=O)O)CC2)C(=O)CC(=O)N(CC(C)(C)C)c2ccc(Cl)cc21 (some centres undefined)
4,7.52,CCOC(=O)C1CCC(N2CCOC(c3ccccc3OC)c3cc(Cl)ccc3N(CC(C)(C)C)C(=O)CC2=O)CC1 (centres undefined)
5,< 6.22,CCOC(=O)C1CCN(C(=O)CN2CC(=O)N(CC(C)(C)C)c3ccc(Cl)cc3C(c3ccccc3OC)OCCC2=O)CC1 (centres undefined)
6,< 6.22,COc1ccccc1C1OCCN([C@H]2CCC[C@H](C(=O)O)C2)C(=O)CC(=O)N(CC(C)(C)C)c2ccc(Cl)cc21 (some centres undefined)
7,< 6.22,CCOC(=O)C1CCCN(C(=O)N2CCCOC(c3ccccc3OC)c3cc(Cl)ccc3N(CC(C)(C)C)C(=O)C2)C1 (centres undefined)
8,< 6.22,COc1ccccc1C1OCCN(CC(=O)N2CCC(C(=O)O)CC2)C(=O)CC(=O)N(CC(C)(C)C)c2ccc(Cl)cc21 (centres undefined)
9,7.80,CCOC(=O)[C@H]1CC[C@H](N2CCOC(c3ccccc3OC)c3cc(Cl)ccc3N(CC(C)(C)C)C(=O)CC2=O)CC1 (some centres undefined)
10,7.77,CCOC(=O)[C@@H]1CCC[C@H](N2CCOC(c3ccccc3OC)c3cc(Cl)ccc3N(CC(C)(C)C)C(=O)CC2=O)C1 (some centres undefined)
11,5.85,COc1ccccc1[C@@H]1OCCCN(C(=O)N2CCC(CC(=O)O)CC2)CC(=O)N(CC(C)(C)C)c2ccc(Cl)cc21
12,7.19,CCOC(=O)C1CCCN(C(=O)CN2CCOC(c3ccccc3OC)c3cc(Cl)ccc3N(CC(C)(C)C)C(=O)CC2=O)C1 (centres undefined)
13,< 6.22,COc1ccccc1C1OCCN(CC(=O)N2CCCC(C(=O)O)C2)C(=O)CC(=O)N(CC(C)(C)C)c2ccc(Cl)cc21 (centres undefined)
14,< 6.22,COc1ccccc1C1OCCC(=O)N(CC(=O)O)CC(=O)N(CC(C)(C)C)c2ccc(Cl)cc21 (centres undefined)
15,8.33,COc1ccccc1C1OCCN([C@@H]2CCC[C@H](C(=O)O)C2)C(=O)CC(=O)N(CC(C)(C)C)c2ccc(Cl)cc21 (some centres undefined)
16,< 6.22,CCOC(=O)C1CCCN(C(=O)CN2CC(=O)N(CC(C)(C)C)c3ccc(Cl)cc3C(c3ccccc3OC)OCCC2=O)C1 (centres undefined)
17,< 6.22,COc1ccccc1C1OCCC(=O)N(CC(=O)N2CCCC(C(=O)O)C2)CC(=O)N(CC(C)(C)C)c2ccc(Cl)cc21 (centres undefined)
18,< 6.22,COc1ccccc1C1OCCN(C(=O)C(=O)O)CCC(=O)N(CC(C)(C)C)c2ccc(Cl)cc21 (centres undefined)
19,< 6.22,COc1ccccc1C1OCCCNCC(=O)N(CC(C)(C)C)c2ccc(Cl)cc21 (centres undefined)
20,7.72,CCOC(=O)[C@@H]1CCC[C@@H](N2CCOC(c3ccccc3OC)c3cc(Cl)ccc3N(CC(C)(C)C)C(=O)CC2=O)C1 (some centres undefined)
21,7.92,COc1ccccc1C1OCCCN(C(=O)N2CCC(C(=O)O)CC2)CC(=O)N(CC(C)(C)C)c2ccc(Cl)cc21 (centres undefined)
22,8.40,COc1ccccc1C1OCCN([C@@H]2CCC[C@@H](C(=O)O)C2)C(=O)CC(=O)N(CC(C)(C)C)c2ccc(Cl)cc21 (some centres undefined)
23,< 6.22,COc1ccccc1C1OCCN(CC(=O)O)C(=O)CC(=O)N(CC(C)(C)C)c2ccc(Cl)cc21 (centres undefined)
24,7.68,COc1ccccc1C1OCCN(C2CCCN(C(=O)C(=O)O)C2)C(=O)CC(=O)N(CC(C)(C)C)c2ccc(Cl)cc21 (centres undefined)
25,< 6.22,COc1ccccc1C1OCCN(C(=O)C(F)(F)F)CCC(=O)N(CC(C)(C)C)c2ccc(Cl)cc21 (centres undefined)

row,pIC50,Compound
1,< 6.22,CCOC(=O)C(=O)N1CCCOC(c2ccccc2OC)c2cc(Cl)ccc2N(CC(C)(C)C)C(=O)C1 (centres undefined)
2,7.60,CCOC(=O)C(=O)N1CCC(N2CCOC(c3ccccc3OC)c3cc(Cl)ccc3N(CC(C)(C)C)C(=O)CC2=O)CC1 (centres undefined)
3,6.77,COc1ccccc1C1OCCCN(C(=O)N2CCCC(C(=O)O)C2)CC(=O)N(CC(C)(C)C)c2ccc(Cl)cc21 (centres undefined)
4,< 6.22,COc1ccccc1C1OCCCN(S(=O)(=O)c2ccccc2[N+](=O)[O-])CC(=O)N(CC(C)(C)C)c2ccc(Cl)cc21 (centres undefined)
5,7.33,CCOC(=O)C1CCN(C(=O)N2CCCOC(c3ccccc3OC)c3cc(Cl)ccc3N(CC(C)(C)C)C(=O)C2)CC1 (centres undefined)
6,< 6.22,COc1ccccc1C1OCC(=O)NCCC(=O)N(CC(C)(C)C)c2ccc(Cl)cc21 (centres undefined)
7,7.74,CCOC(=O)[C@H]1CCC[C@@H](N2CCOC(c3ccccc3OC)c3cc(Cl)ccc3N(CC(C)(C)C)C(=O)CC2=O)C1 (some centres undefined)
8,6.41,CCOC(=O)C1CCN(C(=O)CN2CCOC(c3ccccc3OC)c3cc(Cl)ccc3N(CC(C)(C)C)C(=O)CC2=O)CC1 (centres undefined)
9,7.34,COc1ccccc1C1OCCN(C2CCC(C(=O)O)CC2)C(=O)CC(=O)N(CC(C)(C)C)c2ccc(Cl)cc21 (centres undefined)
10,7.59,CCOC(=O)[C@H]1CC[C@@H](N2CCOC(c3ccccc3OC)c3cc(Cl)ccc3N(CC(C)(C)C)C(=O)CC2=O)CC1 (some centres undefined)
11,< 6.22,COc1ccccc1C1OCCC(=O)N(CC(=O)N2CCC(C(=O)O)CC2)CC(=O)N(CC(C)(C)C)c2ccc(Cl)cc21 (centres undefined)
12,7.85,CCOC(=O)C(=O)N1CCCC(N2CCOC(c3ccccc3OC)c3cc(Cl)ccc3N(CC(C)(C)C)C(=O)CC2=O)C1 (centres undefined)
13,7.27,CCOC(=O)[C@H]1CCC[C@H](N2CCOC(c3ccccc3OC)c3cc(Cl)ccc3N(CC(C)(C)C)C(=O)CC2=O)C1 (some centres undefined)
14,< 6.22,COc1ccccc1C1OCC(=O)N(CC(=O)O)CCC(=O)N(CC(C)(C)C)c2ccc(Cl)cc21 (centres undefined)
15,7.70,CCOC(=O)CC1CCN(C(=O)N2CCCOC(c3ccccc3OC)c3cc(Cl)ccc3N(CC(C)(C)C)C(=O)C2)CC1 (centres undefined)
16,8.36,COc1ccccc1[C@H]1OCCCN(C(=O)N2CCC(CC(=O)O)CC2)CC(=O)N(CC(C)(C)C)c2ccc(Cl)cc21
17,9.22,COc1ccccc1[C@@H](O)c1cc(Cl)ccc1N(CC(C)(C)C)C(=O)CCC(=O)N1CCC[C@H](C(=O)O)C1
18,< 6.22,COc1ccccc1C1OCCN(C2CCN(C(=O)C(=O)O)CC2)C(=O)CC(=O)N(CC(C)(C)C)c2ccc(Cl)cc21 (centres undefined)
19,6.85,CCOC(=O)CN1CCOC(c2ccccc2OC)c2cc(Cl)ccc2N(CC(C)(C)C)C(=O)CC1=O (centres undefined)
20,< 6.22,CCOC(=O)CN1CC(=O)N(CC(C)(C)C)c2ccc(Cl)cc2C(c2ccccc2OC)OCCC1=O (centres undefined)
21,< 6.22,CCOC(=O)CN1CCC(=O)N(CC(C)(C)C)c2ccc(Cl)cc2C(c2ccccc2OC)OCC1=O (centres undefined)
22,< 6.22,COc1ccccc1C1OCCN([C@H]2CCC[C@@H](C(=O)O)C2)C(=O)CC(=O)N(CC(C)(C)C)c2ccc(Cl)cc21 (some centres undefined)
23,8.15,COc1ccccc1C1OCCCN(C(=O)N2CCC(CC(=O)O)CC2)CC(=O)N(CC(C)(C)C)c2ccc(Cl)cc21 (centres undefined)
24,< 6.22,CCOC(=O)C(=O)N1CCOC(c2ccccc2OC)c2cc(Cl)ccc2N(CC(C)(C)C)C(=O)CC1 (centres undefined)

row,Compound,pIC50
1,COc1ccccc1C1OCCNCCC(=O)N(CC(C)(C)C)c2ccc(Cl)cc21 (centres undefined),< 6.22

# Tested on: Hepatocyte
# Assay: Inhibition of cholesterol biosynthesis in rat hepatocytes preincubated for 1 hr followed by [14C]mevalonolactone addition and measured after 1 hr by liquid scintillation counter analysis
# Type: functional, cell-based
# Settings: not given
row,Compound,pIC50
1,COc1ccccc1[C@@H]1OCCCN(C(=O)N2CCC(CC(=O)O)CC2)CC(=O)N(CC(C)(C)C)c2ccc(Cl)cc21,< 5.52
2,COc1ccccc1[C@H]1OCCCN(C(=O)N2CCC(CC(=O)O)CC2)CC(=O)N(CC(C)(C)C)c2ccc(Cl)cc21,6.92
3,COc1ccccc1[C@@H](O)c1cc(Cl)ccc1N(CC(C)(C)C)C(=O)CCC(=O)N1CCC[C@H](C(=O)O)C1,6.92

# Tested on: not listed separately
# Assay: Effect on triglyceride level in hamster assessed as increase in triglyceride level in serum at 100 mg/kg, po bid administered at 9 a.m and 4 p.m for 14 days relative to control
# Type: functional, Cricetinae
# Settings: time 14 day
row,Compound,Activity [%]
1,COc1cccc([C@H]2O[C@H](CC(=O)N3CCC(CC(=O)O)CC3)C(=O)N(CC(C)(C)CO)c3ccc(Cl)cc32)c1OC,8

# Tested on: marmosets
# Assay: Lipid lowering effect in chow diet fed marmosets assessed as reduction in total cholesterol level in serum at 10 mg/kg, po qd administered once a day to 9 to 10 a.m for 7 days relative to control
# Type: functional, Callitrichinae sp.
# Set-up: scale not given: the % may be the effect or the level left
# Settings: time 7 day
row,Compound,Activity [%]
1,COc1cccc([C@H]2O[C@H](CC(=O)N3CCC(CC(=O)O)CC3)C(=O)N(CC(C)(C)CO)c3ccc(Cl)cc32)c1OC,24

# Tested on: marmosets
# Assay: Lipid lowering effect in chow diet fed marmosets assessed as reduction in non-HDL level in serum at 10 mg/kg, po qd administered once a day to 9 to 10 a.m for 7 days relative to control
# Type: functional, Callitrichinae sp.
# Set-up: scale not given: the % may be the effect or the level left
# Settings: time 7 day
row,Compound,Activity [%]
1,COc1cccc([C@H]2O[C@H](CC(=O)N3CCC(CC(=O)O)CC3)C(=O)N(CC(C)(C)CO)c3ccc(Cl)cc32)c1OC,34

# Tested on: marmosets
# Assay: Lipid lowering effect in chow diet fed marmosets assessed as reduction in HDL level in serum at 10 mg/kg, po qd administered once a day to 9 to 10 a.m for 7 days relative to control
# Type: functional, Callitrichinae sp.
# Set-up: scale not given: the % may be the effect or the level left
# Settings: time 7 day
row,Compound,Activity [%]
1,COc1cccc([C@H]2O[C@H](CC(=O)N3CCC(CC(=O)O)CC3)C(=O)N(CC(C)(C)CO)c3ccc(Cl)cc32)c1OC,3

# Tested on: marmosets
# Assay: Lipid lowering effect in chow diet fed marmosets assessed as reduction in triglyceride level in serum at 10 mg/kg, po qd administered once a day to 9 to 10 a.m for 7 days relative to control
# Type: functional, Callitrichinae sp.
# Set-up: scale not given: the % may be the effect or the level left
# Settings: time 7 day
row,Compound,Activity [%]
1,COc1cccc([C@H]2O[C@H](CC(=O)N3CCC(CC(=O)O)CC3)C(=O)N(CC(C)(C)CO)c3ccc(Cl)cc32)c1OC,38
